Experimental data: PMC10663846 (The Journal of Biological Chemistry, 2023)
Peptide text beside a SMILES is read from it.

Experiments:
[1] = human serum diluted 1:4 in RPMI 1640, 37 °C, peptide 10 μg/ml from DMSO stock, 48 h time course, ESI-MS peak area normalized to Angiotensin I
Protocol: Human serum was diluted 1:4 in Gibco RPMI 1640 media (ThermoFisher Scientific, Cat. No. 11–875–093) and incubated at 37 °C for 15 min before peptide stock was added at final concentration of 10 μg/ml. Time points were taken at room temperature and mixed with 200 μl of 3% TFA before a 15 min incubation on ice. Samples were centrifuged at 16,000g for 2.5 min and the supernatant was prepared for C18 desalting by adding 100 μl of 20% acetonitrile, 2% TFA before storage at −20 °C overnight. Samples were processed through Pierce C18 spin columns (ThermoFisher Scientific, Cat. No. 89870) according to the manufacturer’s instructions. Desalted samples were dried under nitrogen and stored at −20 °C until mass spectrometry analysis.
For MALDI-TOF-MS analysis, samples were reconstituted in 200 μl of 0.1% formic acid. Samples were diluted 1:10 in a MALDI matrix containing a 50 fmol/μl solution of Angiotensin I as a control, spotted onto the plate at a volume of 1 μl, and run on an Axima Performance MALDI TOF/TOF mass spectrometer (Shimadzu Scientific Instruments). Data was visualized with Axima Launchpad 2.8 software (Shimadzu Scientific Instruments). For ESI-MS analysis, samples were run on an Orbitrap Exploris 480 (ThermoFisher Scientific). […] ThermoFisher’s Xcalibur 4.0 Data System was used for peptide quantification via peak area (normalized based on Angiotensin I abundance).

[2] = system: OVCAR8 cells and human PBMCs co-culture, TNFα secretion; assay: OVCAR8:PBMC co-culture, secreted TNFα (ELISA); assay type: cell-based; settings: 1:10 OVCAR8:PBMC, 24 h, MN1.4 500, 100 or 10 μM, rPD-L1 1 μM
Protocol: The concentration of PBMCs required for a 1:10 OVCAR8:PBMC ratio was calculated from the OVCAR8 concentration.

## CC[C@H](C)[C@H](NC(=O)[C@H](CCSC)NC(=O)[C@H](CS)NC(=O)[C@H](CCCNC(=N)N)NC(=O)[C@H](Cc1ccc(O)cc1)NC(C)=O)C(=O)N[C@@H](CO)C(=O)N[C@@H](Cc1ccc(O)cc1)C(=O)NCC(=O)NCC(=O)N[C@@H](C)C(=O)N[C@@H](CC(=O)O)C(=O)N[C@@H](Cc1ccc(O)cc1)C(=O)N[C@@H](CCCCN)C(=O)N[C@@H](CCCNC(=N)N)C(=O)N[C@H](C(=O)N[C@H](C(=O)N[C@H](C(N)=O)C(C)C)[C@@H](C)O)[C@@H](C)CC
other
  serum modification products (MALDI-TOF-MS): 119 Da

## CC[C@H](C)[C@@H]1NC(=O)[C@H](CCSC)NC(=O)[C@H](C)NC(=O)[C@H](CCCNC(=N)N)NC(=O)[C@@H](NC(C)=O)CSSC[C@@H](C(N)=O)NC(=O)[C@H]([C@@H](C)O)NC(=O)[C@H]([C@@H](C)CC)NC(=O)[C@H](CCCNC(=N)N)NC(=O)[C@H](CCCCN)NC(=O)[C@H](Cc2ccc(O)cc2)NC(=O)[C@H](CC(=O)O)NC(=O)[C@H](C)NC(=O)CNC(=O)CNC(=O)[C@H](Cc2ccc(O)cc2)NC(=O)[C@H](CO)NC1=O [MN1.2] (HELM PEPTIDE1{[ac].C.R.A.M.I.S.Y.G.G.A.D.Y.K.R.I.T.C.[am]}$PEPTIDE1,PEPTIDE1,2:R3-18:R3$$$V2.0)
[1]
  serum stability, degradation after 48 h: detected at very low levels

## Ac-YRCMISYGGADEKRITV-NH2 [MN_Null]
[2]
  TNFα levels compared to untreated co-culture control: less immunosuppressive activity as compared to MN1.4
